# Results: US10144714B2, “Methods of making protein deacetylase inhibitors” (Acetylon Pharmaceuticals, Inc., priority 2015, dated 2018)
# Experiments:
# [1] = Dynamic vapor sorption (DVS) analysis; type: physicochemical; settings: relative humidity between 0-95 percent, Form I/Pattern A
# Procedure: Dynamic Vapor Soprtion (DVS) analysis was performed using an Aquadyne DVS-2 gravimetric water sorption analyzer. The relative humidity was adjusted between 2-95% and the weight of the sample was continuously monitored and recorded with respect to the relative humidity and time.
# [2] = Thermal gravimetric analysis (TGA); type: physicochemical; settings: from 35 to 150° C.; Form I
# Procedure: Thermal Gravimetric Analysis (TGA) data were collected using a TA Instruments TGA Q500. Approximately, 5-10 mg samples were placed in an open, pre-tared aluminum sample pan and scanned from 25 to 300° C. at a rate of 10° C./min using a nitrogen purge at 60 mL/min.
smiles,measurement,setting,value
"O=C(CCCCCCNC(=O)c1cnc(N(c2ccccc2)c2ccccc2Cl)nc1)NO [Compound (I), 2-((2-chlorophenyl)(phenyl)amino)-N-(7-(hydroxyamino)-7-oxoheptyl)pyrimidine-5-carboxamide]",change in the crystalline form,[1]; after DVS,no change in the crystalline form
same,moisture uptake,[1],less than 0.2%
same,weight loss,[2],less than 0.1%
